# Assay results from ChEMBL document CHEMBL3286379, “Design and synthesis of pyrimidine molecules endowed with thiazolidin-4-one as new anticancer agents” (Eur J Med Chem, 2014).
# What was measured:
# Format in all cases: functional
# SR = assay: Growth inhibition of human SR cells assessed as cell growth at 10 uM after 48 hrs by sulforhodamine B assay relative to control; settings: read-out: Activity
# NCI-H23 = assay: Growth inhibition of human NCI-H23 cells assessed as cell growth at 10 uM after 48 hrs by sulforhodamine B assay relative to control; settings: NCI-H23, 48 h, read-out: Activity
# NCI-H522 = assay: Growth inhibition of human NCI-H522 cells assessed as cell growth at 10 uM after 48 hrs by sulforhodamine B assay relative to control; settings: NCI-H522, 48 h, read-out: Activity
# HCT-116 = assay: Growth inhibition of human HCT116 cells assessed as cell growth at 10 uM after 48 hrs by sulforhodamine B assay relative to control; settings: HCT-116, 48 h, read-out: Activity
# HT-29 = assay: Growth inhibition of human HT-29 cells assessed as cell growth at 10 uM after 48 hrs by sulforhodamine B assay relative to control; settings: HT-29, 48 h, read-out: Activity
# KM12 = assay: Growth inhibition of human KM12 cells assessed as cell growth at 10 uM after 48 hrs by sulforhodamine B assay relative to control; settings: KM12, 48 h, read-out: Activity
# SW-620 = assay: Growth inhibition of human SW620 cells assessed as cell growth at 10 uM after 48 hrs by sulforhodamine B assay relative to control; settings: SW-620, 48 h, read-out: Activity
# SNB-19 [1] = assay: Growth inhibition of human SNB19 cells assessed as cell growth at 10 uM after 48 hrs by sulforhodamine B assay relative to control; settings: SNB-19, 48 h, read-out: Activity
# SK-MEL-28 = assay: Growth inhibition of human SK-MEL-28 cells assessed as cell growth at 10 uM after 48 hrs by sulforhodamine B assay relative to control; settings: SK-MEL-28, 48 h, read-out: Activity
# SK-MEL-5 = assay: Growth inhibition of human SK-MEL-5 cells assessed as cell growth at 10 uM after 48 hrs by sulforhodamine B assay relative to control; settings: SK-MEL-5, 48 h, read-out: Activity
# [2] = Growth inhibition of human UACC257 cells assessed as cell growth at 10 uM after 48 hrs by sulforhodamine B assay relative to control; settings: UACC-257, 48 h, read-out: Activity
# [3] = Growth inhibition of human OVCAR3 cells assessed as cell growth at 10 uM after 48 hrs by sulforhodamine B assay relative to control; settings: OVCAR-3, 48 h, read-out: Activity
# [4] = Growth inhibition of human OVCAR5 cells assessed as cell growth at 10 uM after 48 hrs by sulforhodamine B assay relative to control; settings: OVCAR-5, 48 h, read-out: Activity
# [5] = Growth inhibition of human NCI-ADR-RES cells assessed as cell growth at 10 uM after 48 hrs by sulforhodamine B assay relative to control; settings: read-out: Activity
# SK-OV-3 = assay: Growth inhibition of human SKOV3 cells assessed as cell growth at 10 uM after 48 hrs by sulforhodamine B assay relative to control; settings: SK-OV-3, 48 h, read-out: Activity
# 786-0 = assay: Growth inhibition of human 786-0 cells assessed as cell growth at 10 uM after 48 hrs by sulforhodamine B assay relative to control; settings: 786-0, 48 h, read-out: Activity
# A498 = assay: Growth inhibition of human A498 cells assessed as cell growth at 10 uM after 48 hrs by sulforhodamine B assay relative to control; settings: A498, 48 h, read-out: Activity
# CAKI-1 = assay: Growth inhibition of human CAKI-1 cells assessed as cell growth at 10 uM after 48 hrs by sulforhodamine B assay relative to control; settings: CAKI-1, 48 h, read-out: Activity
# [6] = Growth inhibition of human UO31 cells assessed as cell growth at 10 uM after 48 hrs by sulforhodamine B assay relative to control; settings: UO-31, 48 h, read-out: Activity
# PC-3 = assay: Growth inhibition of human PC3 cells assessed as cell growth at 10 uM after 48 hrs by sulforhodamine B assay relative to control; settings: PC-3, 48 h, read-out: Activity
# MCF7 = assay: Growth inhibition of human MCF7 cells assessed as cell growth at 10 uM after 48 hrs by sulforhodamine B assay relative to control; settings: MCF7, 48 h, read-out: Activity
# MDA-MB-231 = assay: Growth inhibition of human MDA-MB-231 cells assessed as cell growth at 10 uM after 48 hrs by sulforhodamine B assay relative to control; settings: MDA-MB-231, 48 h, read-out: Activity
# T47D = assay: Growth inhibition of human T47D cells assessed as cell growth at 10 uM after 48 hrs by sulforhodamine B assay relative to control; settings: read-out: Activity
# MDA-MB-468 = assay: Growth inhibition of human MDA-MB-468 cells assessed as cell growth at 10 uM after 48 hrs by sulforhodamine B assay relative to control; settings: MDA-MB-468, 48 h, read-out: Activity
# RPMI-8226 = assay: Growth inhibition of human RPMI8226 cells after 48 hrs by sulforhodamine B assay; settings: RPMI-8226, 48 h
# [7] = Growth inhibition of human HCC2998 cells after 48 hrs by sulforhodamine B assay; settings: HCC 2998, 48 h
# SNB-19 [8] = assay: Growth inhibition of human SNB19 cells after 48 hrs by sulforhodamine B assay; settings: SNB-19, 48 h
# SK-MEL-2 = assay: Growth inhibition of human SK-MEL-2 cells after 48 hrs by sulforhodamine B assay; settings: SK-MEL-2, 48 h
# ACHN = assay: Growth inhibition of human ACHN cells after 48 hrs by sulforhodamine B assay
# [9] = Growth inhibition of human RXF393 cells after 48 hrs by sulforhodamine B assay; settings: RXF 393, 48 h
# [10] = read-out: LC50 (the source's name)
# [11] = read-out: pLC50 (the source's name) (converted)
smiles,measurement,setting,value
Nc1nc(-c2ccccc2Cl)cc(-c2ccc(Cl)cc2Cl)n1,growth at 10 µM,SR,25.4%
same,growth at 10 µM,NCI-H23,75.4%
same,growth at 10 µM,NCI-H522,68.5%
same,growth at 10 µM,HCT-116,33%
same,growth at 10 µM,HT-29,36.6%
same,growth at 10 µM,KM12,53.8%
same,growth at 10 µM,SW-620,39%
same,growth at 10 µM,SNB-19 [1],78.2%
same,growth at 10 µM,SK-MEL-28,88%
same,growth at 10 µM,SK-MEL-5,75.2%
same,growth at 10 µM,[2],93%
same,growth at 10 µM,[3],85.2%
same,growth at 10 µM,[4],96.2%
same,growth at 10 µM,[5],79.8%
same,growth at 10 µM,SK-OV-3,93%
same,growth at 10 µM,786-0,90.2%
same,growth at 10 µM,A498,53.7%
same,growth at 10 µM,CAKI-1,68%
same,growth at 10 µM,[6],62.5%
same,growth at 10 µM,PC-3,74.2%
same,growth at 10 µM,MCF7,45.7%
same,growth at 10 µM,MDA-MB-231,65%
same,growth at 10 µM,T47D,63.7%
same,growth at 10 µM,MDA-MB-468,18.6%
same,GI50,RPMI-8226; read-out: GI50,3.1 µM
same,CC50,RPMI-8226; [10],> 100 µM
same,TGI,RPMI-8226; read-out: TGI,17.6 µM
same,GI50,RPMI-8226; read-out: pGI50 (converted),3.09 µM
same,CC50,RPMI-8226; [11],> 100 µM
same,TGI,RPMI-8226; read-out: pTGI (converted),17.4 µM
same,GI50,[7]; read-out: GI50,7.19 µM
same,CC50,[7]; [10],> 100 µM
same,TGI,[7]; read-out: TGI,44 µM
same,GI50,[7]; read-out: pGI50 (converted),7.24 µM
same,CC50,[7]; [11],> 100 µM
same,TGI,[7]; read-out: pTGI,43.7 µM
same,GI50,SNB-19 [8]; read-out: GI50,16.1 µM
same,CC50,SNB-19 [8]; [10],> 100 µM
same,TGI,SNB-19 [8]; read-out: TGI,> 100 µM
same,GI50,SNB-19 [8]; read-out: pGI50 (converted),16.2 µM
same,CC50,SNB-19 [8]; [11],> 100 µM
same,TGI,SNB-19 [8]; read-out: pTGI,> 100 µM
same,GI50,SK-MEL-2; read-out: GI50,6.1 µM
same,CC50,SK-MEL-2; [10],> 100 µM
same,TGI,SK-MEL-2; read-out: TGI,44.7 µM
same,GI50,SK-MEL-2; read-out: pGI50 (converted),6.17 µM
same,CC50,SK-MEL-2; [11],> 100 µM
same,TGI,SK-MEL-2; read-out: pTGI (converted),44.7 µM
same,GI50,ACHN; read-out: GI50,10.4 µM
same,CC50,ACHN; [10],> 100 µM
same,TGI,ACHN; read-out: TGI,> 100 µM
same,GI50,ACHN; read-out: pGI50 (converted),10.5 µM
same,CC50,ACHN; [11],> 100 µM
same,TGI,ACHN; read-out: pTGI,> 100 µM
same,GI50,[9]; read-out: GI50,2.67 µM
same,CC50,[9]; [10],> 100 µM
same,TGI,[9]; read-out: TGI,10.7 µM
same,GI50,[9]; read-out: pGI50 (converted),2.69 µM
same,CC50,[9]; [11],> 100 µM
same,TGI,[9]; read-out: pTGI (converted),10.7 µM
O=C1CS/C(=N\c2nc(-c3ccccc3Cl)cc(-c3ccc(Cl)cc3Cl)n2)N1,growth at 10 µM,SR,75.1%
same,growth at 10 µM,NCI-H23,90%
same,growth at 10 µM,NCI-H522,88.6%
same,growth at 10 µM,HCT-116,94.5%
same,growth at 10 µM,HT-29,107%
same,growth at 10 µM,KM12,97.7%
same,growth at 10 µM,SW-620,92.9%
same,growth at 10 µM,SNB-19 [1],101%
same,growth at 10 µM,SK-MEL-28,102%
same,growth at 10 µM,SK-MEL-5,103%
same,growth at 10 µM,[2],107%
same,growth at 10 µM,[3],101%
same,growth at 10 µM,[4],108%
same,growth at 10 µM,[5],98.1%
same,growth at 10 µM,SK-OV-3,95.4%
same,growth at 10 µM,786-0,99.7%
same,growth at 10 µM,A498,101%
same,growth at 10 µM,CAKI-1,88.6%
same,growth at 10 µM,[6],58%
same,growth at 10 µM,PC-3,83.8%
same,growth at 10 µM,MCF7,87.2%
same,growth at 10 µM,MDA-MB-231,88.8%
same,growth at 10 µM,T47D,86.5%
same,growth at 10 µM,MDA-MB-468,93.5%
O=C1N/C(=N/c2nc(-c3ccccc3Cl)cc(-c3ccc(Cl)cc3Cl)n2)S/C1=C/c1ccc(Cl)cc1,growth at 10 µM,SR,32.4%
same,growth at 10 µM,NCI-H23,76%
same,growth at 10 µM,NCI-H522,82.3%
same,growth at 10 µM,HCT-116,75.4%
same,growth at 10 µM,HT-29,103%
same,growth at 10 µM,KM12,79.8%
same,growth at 10 µM,SW-620,76.6%
same,growth at 10 µM,SNB-19 [1],93.4%
same,growth at 10 µM,SK-MEL-28,104%
same,growth at 10 µM,SK-MEL-5,83.6%
same,growth at 10 µM,[2],93.2%
same,growth at 10 µM,[3],89.2%
same,growth at 10 µM,[4],102%
same,growth at 10 µM,[5],90.1%
same,growth at 10 µM,SK-OV-3,99.2%
same,growth at 10 µM,786-0,100%
same,growth at 10 µM,A498,76.2%
same,growth at 10 µM,CAKI-1,97.2%
same,growth at 10 µM,[6],55.2%
same,growth at 10 µM,PC-3,79%
same,growth at 10 µM,MCF7,50.4%
same,growth at 10 µM,MDA-MB-231,63.2%
same,growth at 10 µM,T47D,60.9%
same,growth at 10 µM,MDA-MB-468,34.2%
